Laboratory results from patent publication US12522614B2, “Topical phosphoinositide 3-kinase inhibitors” (VENTHERA, INC., priority 2019, dated 2026).

What was measured:
[1] = Viscosity of topical formulation as prepared; type: physicochemical; details: gel formulation of Example 8 (Table 2)
Protocol: The liquid excipients, i.e. DMSO, oleic acid, Transcutol® P, and dipropylene glycol were mixed in a 20-mL vial, by vortex agitation. The active ingredient, a compound of formula (I), for example Compound 1.002 was then added, and the vial content was sonicated for 10 minutes to dissolve the compound. […] Hydroxylpropyl cellulose (HPC) was added, and the vial was agitated by vortex for another ten minutes to obtain the gel formulation. The viscosity of the clear gel was measured to be in a range of about 7,000 to 10,000 centipoise (cp).
A solution formulation was prepared, similar to the gel formulations as described in Example 8, without a thickening agent. The viscosity of the solution was 13.4 cp and it can be used as a topical spray or lotion.

[2] = Human skin permeation from liquid reservoir transdermal patch over 7 days; type: in vitro ADME; details: liquid reservoir patch with Table 11 gel
Protocol: Liquid reservoir transdermal patches of FIG. 6 were prepared and used for the study of delivery of Compound 1.002. The transdermal patches were used to deliver Compound 1.002 in vitro through human skin for 7 days from a single patch application. The following gel formulation having composition as shown in Table 11 was prepared according to Example 8 and incorporated into the reservoir patch system.
Patches using the gel formulation having compositions of Table 11 were prepared in accordance with the process shown in FIG. 7. The patch was 1.8 cm^2 in size containing 0.3 mL of the gel formulation. The backing layer of the patch was Scotchpak® 9723, which is a laminate of polyester and polyethylene commonly used in transdermal patches. The controlling membrane was SOLUPOR® 10P05A, which is a highly porous (up to 90% porous) Ultra High Molecular Weight Polyethylene membrane with controlled pore size. The pressure sensitive adhesive in contact with the human skin was […], which is a non-crosslinked acrylate copolymer with no functional groups.
Compound 1.002 was confirmed to metabolize to MTPP by estarases as it permeates through the human skin.

[3] = Accelerated stability study of topical gel formulations at 80° C.; type: physicochemical; details: gel formulation (Table 2 excipients), 80° C.
Protocol: Topical gel formulations were prepared using excipients as shown in Table 2 according to Example 8, in which Compounds 1.002, 1.012, and 1.006 were used as the active ingredient, respectively. These gel formulations were subjected to stability study at 80° C. for 10 days. Stability under the condition of at 80° C. for 10 days is expected to be approximately equivalent to the stability for three (3) years at room temperature. A relative purity of the tested compound after being exposed for 5 days and 10 days at 80° C. was determined by HPLC, as compared to its initial purity (at day 0).
The values shown in the table are percent hydrolysis of the respective compounds to the parent compound MTPP.
Topical gel formulations of Compound 1.002 were prepared using excipients as shown in Table 2 according to Example 8, in which the content of oleic acid varied at 1%, 2%, 5%, and 10%, respectively. These gel formulations were subjected to stability study at 80° C. for 10 days, which is expected to be approximately equivalent to the stability for three (3) years at room temperature. A purity of the tested compound on day 0, 5, 7, and 10 at 80° C. was determined by HPLC. The detected impurity of the tested compound appears to be the hydrolysis product, as MTPP. Table 17 represents stability data of Compound 1.002 in topical formulations having oleic acid at various contents.
Gel formulations of Example 17 were subjected to stability study at 80° C. for 10 days. Stability under the condition of at 80° C. for 10 days is expected to be approximately equivalent to the stability for three (3) years at room temperature. A relative purity of Compound 1.002 after being exposed for 5 days and 10 days at 80° C. was determined by HPLC, as compared to its initial purity (at day 0).

[4] = In vitro human skin permeation study of topical gel formulations (Franz diffusion cells); type: in vitro ADME; details: Study-1, Example 8 gel, human skin
Text: The gel formulation of Example 8 was used as the donor phase to determine the permeation of Compound 1.002 through human skin and its effectiveness as a topical application. Three skin donors and three diffusion cells (for each donor) per formulation were used in the in vitro skin permeation experiments. Split thickness dermatomed (approximately at […] thickness) human cadaver skin, supplied by New York Firefighters Skin Bank, NY, was used to determine the permeation rate of the tested compound (i.e., the drug) in vitro. All in vitro skin permeation studies were conducted using the Vertical Diffusion Cells assembly with consoles (Model FDC-6), and heating controllers (Logan Instruments Inc. Somerset, NJ). Each assembly consisted of six vertical, jacketed (37° C.±0.5° C.) 12-mL Franz diffusion cells with magnetic stirrer and 1.767 cm^2 diffusion area.
Skin flux studies were run for a period of 48 hours. At predetermined intervals (2, 4, 8, 24 and 48 hours) after starting the experiment, the entire contents of the receiver compartment were collected for determining concentrations of the drug by HPLC. The receiver compartment was refilled with fresh receiver medium. The receiver medium was pH 7.4 phosphate buffer with 0.5 mg/ml of Oleath 20 with the saturation concentration of the drug in the receptor medium being 0.152 mg/ml. This solubility of the drug in the receiver medium was enough to ensure sink conditions throughout each collection interval.
Samples of the receptor phase were obtained at 2, 4, 8, 12, 24 and 48 h and concentrations of Compound 1.002 and 3-(4-morpholinothieno(3,2-d)pyrimidin-2-yl)phenol (metabolite of Compound 1.002, abbreviated as MTPP) were determined using a validated HPLC method. The metabolism of Compound 1.002 to MTPP takes place in the human skin by esterase enzymes.
HPLC method: Column—Gemini C-18 4.6×150 mm, 5 μm particle size; Mobile Phase—water:acetonitrile 25:75 containing 0.1% TFA; Flow Rate—1 mL/min; Detection—274 nm; Column Temperature—40° C.; and Run Time—10 min. The retention times for MTPP and Compound 1.002 were 3.9 and 7.2 minutes, respectively.
The skin flux of drugs and cumulative amount of drugs permeated (sum of MTPP and Compound 1.002) for a period of 48 hours were calculated and are shown in Table 3. FIG. 3 represents a plot of Cumulative amount permeated versus time.

## CC(=O)Oc1cccc(-c2nc(N3CCOCC3)c3sccc3n2)c1 [Compound 1.002, 3-(4-Morpholinothieno[3,2-d]pyrimidin-2-yl)phenyl Acetate]
[1]
  Viscosity of the clear gel: 7,000 to 10,000 centipoise (cp)
[2]
  Compound 1.002 metabolized to MTPP after permeating through the human skin: approximately 85%
[3]; Day 0
  Relative Purity: 100%
[3]; Day 5
  Relative Purity: 96%
[3]; Day 10
  Relative Purity: 94%
[4]; Donor 2, 4 h
  Hydrolysis of Cmpd. 1.002 to MTPP: 100%
[4]; Donor 3, 2 h
  Cumulative permeation, Cmpd. 1.002: 0.00 μg/cm^2
